These results are taken from paper PMC5299686, “Betanodavirus-like particles enter host cells via clathrin-mediated endocytosis in a cholesterol-, pH- and cytoskeleton-dependent manner” (Veterinary Research, 2017).

One data set deals with SB cells. In words: Cytotoxicity assay (CellTiter 96 AQueous One Solution Cell Proliferation Assay). How it is done:
To optimize the working concentration of the inhibitors, the cytotoxicity of the drugs to SB cells were evaluated. SB cells grown in 96-well plates were treated with the inhibitors at different concentrations for 4 h. Then cell viability was assayed using CellTiter 96® AQueous One Solution Cell Proliferation Assay (Promega, USA) according to the manufacturer’s instructions.

For data set [1], the system named is RBS entry into SB cells. In words: VLP (RBS) entry assay with inhibitor or siRNA perturbation, ELISA quantitation. The class given is cell-based, Lates calcarifer. Conditions: for change of RBS entry efficiency compared with untreated cells: 2 h entry. The procedure: (§1) Virus-like particles entry (invasion) assays were performed using SB or other indicated cells as described. In brief, the cells were seeded on coverslips in 12-well plates or cultured in 96-well plates for 18 or 24 h to achieve 70% confluence, pretreated with the indicated inhibitors at the indicated temperature (26 °C for fish cells, 28 °C for insect cells, and 37 °C for mammalian cells) and concentration (Table 1) for 1 h, and then incubated with RBS or CGV in the presence of the inhibitors for 1 h on ice. After that, the cells were washed three times with pre-cooling PBS, shifted to 28 °C to start entry, and visualized directly by fluorescent microscopy for CGV entry kinetics, or fixed for IFA followed by fluorescent microscopy, or collected for ELISA at the indicated times. In the untreated (positive) or mock-infected (negative) controls, the cells were subjected to no inhibitor treatment or no VLP incubation respectively. The entry assay of each inhibitor was repeated at least three times.
Six wells of cells in a 96-well plate treated with the same condition in entry assays were washed thoroughly with PBS, lysed with 20 μL of lysis buffer in each well and combined as one sample. Endogenous β-actin was used as an internal normalization control for ELISA. Three-hundred microliters of 30-fold diluted lysate for VLP detection or 100-fold diluted lysate for β-actin detection were coated equally in three wells of a 96-well microtiter plate at 4 °C overnight, respectively. The plate was conducted to room temperature and washed three times with 200 μL PBS. After blocking with 5% bovine serum albumin (BSA) in PBS for 1 h at room temperature and washing three times (all washes below indicate triplicate washings) with 200 μL PBS containing 0.05% Tween20 (PBST), the plate was incubated with in-house produced mouse anti-VLP antiserum at a dilution of 1:2000 in PBS for 1 h. The plate was washed and peroxidase-conjugated goat anti-mouse IgG (Sigma) at a dilution of 1:3000 in PBS was added and incubated for 1 h. Following thorough washings (five times), 100 μL of OPD substrate (Sigma) was added and the color development was conducted at room temperature. The reaction was stopped by the addition of 4 M sulfuric acid and the absorbance at 492 nm was determined. The OD492 of each sample including treated and untreated cells was normalized with the corresponding OD492 of β-actin to obtain the relative VLP quantity. The entry efficiency was generated as the percentage of treated cells with incorporated VLP relative to that for untreated cells. The VLP entry efficiency of untreated cells was arbitrarily set as 100%. The data shown are the mean ± SD of the results from three independent experiments. Statistical differences of VLP content from different groups were assessed by paired Student’s t tests. Numerical results are presented as mean ± SD with 95% confidence intervals and p < 0.05 was considered statistically significant (*, p < 0.05; **, p < 0.01).

Data set [2] has as its system RBS entry into SB cells. Description: VLP (RBS) entry assay, IFA and fluorescent microscopy. The class given is cell-based, Lates calcarifer. Particulars: at the working concentrations (CPZ 1 to 70 μM; dynasore 1, 10, 80 μM; siRNA 48 h post-transfection). How it is done:
(§2) Virus-like particles entry (invasion) assays were performed using SB or other indicated cells as described. In brief, the cells were seeded on coverslips in 12-well plates or cultured in 96-well plates for 18 or 24 h to achieve 70% confluence, pretreated with the indicated inhibitors at the indicated temperature (26 °C for fish cells, 28 °C for insect cells, and 37 °C for mammalian cells) and concentration (Table 1) for 1 h, and then incubated with RBS or CGV in the presence of the inhibitors for 1 h on ice. […]
(§3) Cells were washed twice with PBS, fixed with 4% paraformaldehyde for 15 min, permeated with 0.2% Triton X-100 for 10 min, and then blocked with 5% BSA for 1 h. […] For identification of entry and trafficking of RBS in cells, images were acquired using a laser scanning confocal fluorescence microscope (TCS-SP5, Leica Microsystems Wetzlar GmbH Inc., Germany). Images were acquired randomly from 5 different fields of view per coverslip to get more than 20 cells and to allow observing the signals of targets and nuclei fluorescence by Leica Application Suite (2.6.0 build 7266). […] The results are expressed as the mean ± standard deviation (SD).

Data set [3] concerns RBS entry into SSN-1 cells. Description: VLP entry assay and IFA on SSN-1 cells. The data set is classed as cell-based, Channa striatus. Conditions: SSN-1 cells pretreated with CPZ for 1 h. The procedure:
as §2, §3

Another data set relates to RBS entry into GB cells. In words: VLP entry assay and IFA on GB cells. The class given is cell-based, Epinephelus coioides. Conditions: GB cells pretreated with CPZ for 1 h. How it is done: as §2, §3
Another data set has as its system CGV entry into SB cells. In words: CGV entry assay, ELISA quantitation. The data set is classed as cell-based, Lates calcarifer. How it is done:
as §1, with “In the untreated (positive) or mock-infected (negative) controls, the cells were subjected to no inhibitor treatment or no VLP incubation respectively. The entry assay of each inhibitor was repeated at least three times.” left out
Six wells of cells in a 96-well plate treated with the same condition in entry assays were washed thoroughly with PBS, lysed with 20 μL of lysis buffer in each well and combined as one sample. […] The reaction was stopped by the addition of 4 M sulfuric acid and the absorbance at 492 nm was determined. The OD492 of each sample including treated and untreated cells was normalized with the corresponding OD492 of β-actin to obtain the relative VLP quantity. […] Statistical differences of VLP content from different groups were assessed by paired Student’s t tests. […]

The mark [4] stands for this setting: Lates calcarifer, read-out: RBS entry blocked (inhibited).
The mark [5] stands for this setting: 1 mM inhibitor, SB cells, ELISA.
Setting [6] is: 40 μM inhibitor alone, SB cells, ELISA.

Where two headings read alike, the source gives them in different places.

In the case of `COC(=O)Nc1nc2ccc(C(=O)c3cccs3)cc2[nH]1` [nocodazole], the “MC, max concentration that can be used without cytotoxicity” value in the data set with SB cells (SB cells, 4 h treatment) turned out to be 160 µM. In the data set with RBS entry into SB cells [1] (setting [4]), the inhibition at 1 µM was 59.4%, the inhibition at 5 µM was 74% and the inhibition at 50 µM was 81.3%.
Consider methyl-β-cyclodextrin [MβCD], for which the “RBS entry blocked (inhibited)” value in the data set on RBS entry into SB cells [1] (0.5 mM inhibitor, SB cells, ELISA) is 63.6%; in the data set with RBS entry into SB cells [1] (setting [5]) it was 59.5%; in the data set with RBS entry into SB cells [1] (2 mM inhibitor, SB cells, ELISA) it was 74.4%.
In the case of `C=C1[C@@H](C)[C@H]2[C@H](Cc3ccccc3)NC(=O)[C@]23[C@H](OC(C)=O)/C=C/[C@@](C)(O)C(=O)[C@@H](C)C/C=C/[C@H]3[C@@H]1O` [CytD, cytochalasin D], in the data set with SB cells (SB cells, 4 h treatment), the “MC, max concentration that can be used without cytotoxicity” value turned out to be 77.8 µM. For the same molecule, in the data set on RBS entry into SB cells [1] (setting [4]), the inhibition at 1 µM was 83.2%, the inhibition at 10 µM is 96% and the inhibition at 77.8 µM is 96.5%.
For `COC[C@H]1OC(=O)c2coc3c2[C@@]1(C)C1=C(C3=O)[C@@H]2CCC(=O)[C@@]2(C)C[C@H]1OC(C)=O` [wortmannin], the “MC, max concentration that can be used without cytotoxicity” value in the data set on SB cells (SB cells, 4 h treatment) was found to be 50 µM. Also, in the data set with RBS entry into SB cells [1] (setting [4]), the inhibition at 1 µM was -1.4%, the inhibition at 10 µM is 0.82% and the inhibition at 50 µM was 23%.
In the case of `CCN(CC)CCCC(C)Nc1ccnc2cc(Cl)ccc12` (centres unmarked) [chloroquine], the “MC, max concentration that can be used without cytotoxicity” value in the data set on SB cells (SB cells, 4 h treatment) was 1000 µM. Besides, the “RBS entry blocked (inhibited)” value in the data set with RBS entry into SB cells [1] (setting [5]) is given as “totally block”. Further, the inhibition at 10 µM in the data set on RBS entry into SB cells [1] (setting [4]) was greater than 70%.
On to `CN(C)CCCN1c2ccccc2Sc2ccc(Cl)cc21` [CPZ, chlorpromazine], for which the “fluorescent signal of RBS in cells (IFA) compared with untreated cells” value in the data set on RBS entry into SB cells [2] is on record as “significantly reduced”. For the same molecule, the “VLP entry efficiency in treated compared with untreated samples (IFA)” value in data set [3] is reported as “dramatically decreased”. The “MC, max concentration that can be used without cytotoxicity” value with SB cells (SB cells, 4 h treatment) turned out to be 700 µM. Also, the “change of RBS entry efficiency compared with untreated cells” value (“change of RBS entry efficiency” for short) with RBS entry into SB cells [1] (7 μM inhibitor alone, SB cells, ELISA) is on record as “dramatically reduced”. The “VLP entry efficiency (untreated cells = 100%)” value in the data set on RBS entry into SB cells [1] (70 μM inhibitor, SB cells, ELISA) turned out to be 5%. Further, in the data set with RBS entry into SB cells [1] (setting [4]), the inhibition at 1 µM is 70%, the inhibition at 7 µM is 80% and the inhibition at 70 µM was 95%. Also, the “VLP entry efficiency in treated compared with untreated samples (IFA)” value in the data set with RBS entry into GB cells is recorded as “dramatically decreased”.
In the case of `CCN(CC)CCCC(C)Nc1nc(C)cc(Nc2ccc3nc(C)cc(N)c3c2)n1` (centres unmarked) [NSC23766], in the data set on SB cells (SB cells, 4 h treatment), the “MC, max concentration that can be used without cytotoxicity” value was 40 µM. Moreover, the “change of RBS entry efficiency” value in the data set on RBS entry into SB cells [1] (setting [6]) is reported as “no statistically significant change”.
With `CN(C)C[C@H](O)Cn1c2ccc(Br)cc2c2cc(Br)ccc21` (racemic) [wiskostatin], the “MC, max concentration that can be used without cytotoxicity” value in the data set on SB cells (SB cells, 4 h treatment) came to 50 µM. Also, in the data set with RBS entry into SB cells [1] (setting [4]), the inhibition at 1 µM is 77.9%, the inhibition at 10 µM was 84.6% and the inhibition at 50 µM was 94.2%.
On to `O=c1c(-c2ccc(O)cc2)coc2cc(O)cc(O)c12` [genistein], for which, in the data set with SB cells (SB cells, 4 h treatment), the “MC, max concentration that can be used without cytotoxicity” value came out at 100 µM. Also, the “entry quantity of VLP compared with mock-treated control” value with RBS entry into SB cells [1] (100 μM inhibitor, SB cells, ELISA) was found to be 88%.
For `CC(C)CCC[C@@H](C)[C@H]1CC[C@H]2[C@@H]3CC=C4C[C@@H](O)CC[C@]4(C)[C@H]3CC[C@]12C` [cholesterol], in the data set with CGV entry into SB cells (SB cells not treated with MβCD), the “effect of cholesterol supplement on CGV entry” value is recorded as “did not enhance the entry of CGV”. Besides, the “CGV entry efficiency after cholesterol replenishment compared with mock-treated cells” value in the data set on CGV entry into SB cells (SB cells pretreated with 5 mM MβCD, then exogenous cholesterol 0.8 μg/μL for 1 h) came out at 57%.
Regarding `O=S(=O)(c1cccc2c(I)cccc12)N1CCCNCC1` [ML-7], the “MC, max concentration that can be used without cytotoxicity” value in the data set on SB cells (SB cells, 4 h treatment) turned out to be 40 µM. The “change of RBS entry efficiency” value in the data set with RBS entry into SB cells [1] (setting [6]) is “no statistically significant change”.
Turning to `Cl.N` [NH4Cl, ammonia chloride], the “MC, max concentration that can be used without cytotoxicity” value in the data set on SB cells is reported as 50 000 μM. In the data set on RBS entry into SB cells [1] (50 mM inhibitor, SB cells, ELISA), the “VLP entry efficiency (untreated cells = 100%)” value is 25%.
On to `CC(=O)c1c(O)c(C)c(O)c(Cc2c(O)c3c(c(C(=O)/C=C/c4ccccc4)c2O)OC(C)(C)C=C3)c1O` [rottlerin], for which the “MC, max concentration that can be used without cytotoxicity” value in the data set with SB cells (SB cells, 4 h treatment) was 40 µM. Further, in the data set on RBS entry into SB cells [1] (setting [6]), the “change of RBS entry efficiency” value is on record as “no statistically significant change”.
For `Oc1ccc2ccccc2c1SSc1c(O)ccc2ccccc12` [IPA-3] the same measures were 40 µM and “no statistically significant change”.
Take `O=C(N/N=C/c1ccc(O)c(O)c1)c1cc2ccccc2cc1O` [dynasore]: the “fluorescent signal of RBS in cells (IFA) compared with untreated cells” value in the data set on RBS entry into SB cells [2] is recorded as “significantly reduced”. In the data set with SB cells (SB cells, 4 h treatment), the “MC, max concentration that can be used without cytotoxicity” value was found to be 800 µM. Besides, the “VLP entry efficiency (untreated cells = 100%)” value in the data set on RBS entry into SB cells [1] (1 μM inhibitor, SB cells, ELISA) is reported as 71.4%; with RBS entry into SB cells [1] (10 μM inhibitor, SB cells, ELISA), 48.5%; in the data set with RBS entry into SB cells [1] (80 μM inhibitor, SB cells, ELISA) it was 40%.
